Test results as given in patent publication US20020137929A1, “1 - (3-heterocyclylphenyl) isothiourea, -isourea, -guanidine and -amidine herbicidal agents” (Intellectual Property Department, BASF Aktiengesellschaft, priority 1998, published 2002).

Legend:
ZEAMX (Corn, Field) [1] = assay: Preemergence herbicidal evaluation; type: in vivo, Zea mays; conditions: rated 4-5 weeks after treatment
How it was run: (§1)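 Preemergence soil application of compound, sprayed in aqueous acetone at rates equivalent to about 0.0156 to 0.500 kg per hectare onto freshly sown cups. Plant response was judged by eye on a 0-9 scale four to five weeks later.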

ZEAMX (Corn, Field) [2] = assay: Postemergence herbicidal evaluation; type: in vivo, Zea mays; conditions: postemergence
How it was run: (§2)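 Each compound, dispersed in an acetone/water mix (50/50) carrying 0.5% TWEEN 20, is nozzle-sprayed at 40 psi on approximately two-week-old seedlings at about 0.0156–0.500 kg/ha. Plants are assessed 4–5 weeks afterward on a 0–9 scale relative to control; duplicate tests are averaged.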

GALAP (Galium) = assay: Preemergence herbicidal evaluation; type: in vivo, Galium aparine; conditions: rated 4-5 weeks after treatment
How it was run: as §1

AMBEL (Ragweed, Common) = assay: Preemergence herbicidal evaluation; type: in vivo, Ambrosia artemisifolia; conditions: rated 4-5 weeks after treatment
How it was run: as §1

[3] = tested on: CHEAL (Lambsquarters, Common); assay: Preemergence herbicidal evaluation; type: in vivo, Chenopodium album; conditions: rated 4-5 weeks after treatment
How it was run: as §1

SETVI (Foxtail, Green) = assay: Preemergence herbicidal evaluation; type: in vivo, Setaria viridis; conditions: rated 4-5 weeks after treatment
How it was run: as §1

ORYSAT (Rice, Tebonnet) = assay: Rice tolerance to post-transplant applications, flooded paddy conditions (Table III); type: in vivo, Oryza sativa, (L.) Tebonnet; conditions: in vivo
How it was run: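 Two ten-day-old Tebonnet seedlings transplanted into flooded silt loam (water 1.5 to 3 cm above soil); three days later the water surface was treated with compound in aqueous/acetone 50/50 at about 0.0313 to 0.500 kg/ha. Visual 0-9 injury rating versus control after three to four weeks in greenhouse.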

[4] = tested on: TRZAWR (Wheat, Winter, cv Riband); assay: Postemergence herbicidal evaluation; type: in vivo, Triticum aestivum; conditions: postemergence
How it was run: as §2

ECHCG (Barnyardgrass) = assay: Preemergence herbicidal evaluation; type: in vivo, Echinochloa crus-galli; conditions: rated 4-5 weeks after treatment
How it was run: as §1

[5] = tested on: IPOHE (Morningglory, Ivyleaf); assay: Preemergence herbicidal evaluation; type: in vivo, Ipomoea hederacea; conditions: rated 4-5 weeks after treatment
How it was run: as §1

CASOB (Sicklepod) = assay: Postemergence herbicidal evaluation; type: in vivo, Cassia obtusifolia; conditions: postemergence
How it was run: as §2

CYPSE (Flatsedge) = assay: Preemergence weed control under flooded paddy conditions; type: in vivo, Cyperus serotinus; conditions: rated 3-4 weeks after treatment
How it was run: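 Ratings on a 0-9 visual scale cover stand, vigor, malformation, size, chlorosis and overall appearance relative to a control, taken three to four weeks post-treatment. Application was into flood water over freshly sown silt loam at roughly 0.0313 to 0.500 kg/ha.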

[6] = tested on: ECHORC (Watergrass (Calif.)); assay: as above; type: in vivo, Echinochloa oryzoides; conditions: rated 3-4 weeks after treatment
How it was run: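 Seeds or propagules sown in top 0.5 cm of silt loam soil, flooded 1.5 to 3 cm above surface throughout. Compound in 50/50 v/v aqueous/acetone pipetted into flood water at about 0.0313 to 0.500 kg/ha. Visual 0-9 rating versus control after three to four weeks in greenhouse.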

COC(=O)C(C)OC(=O)CN1C(=O)CSC1=Nc1cc(-n2c(=O)cc(C(F)(F)F)n(C)c2=O)c(F)cc1Cl (stereo not drawn) [Compound 116, 2-{{2-Chloro-5-[3,6-dihydro-3-methyl-2,6-dioxo-4-(trifluoromethyl)-1(2H)-pyrimidinyl]-4-fluorophenyl}imino}-4-oxo-3-thiazolidineacetic acid, ester with methyl lactate]
2.5: Herbicidal rating TRZAWR ([4]; rate 0.0315 kg/ha) | Herbicidal rating TRZAWR ([4]; rate 0.0630 kg/ha)
0.0: Preemergence herbicidal rating ZEAMX (ZEAMX (Corn, Field) [1]; rate 0.0156 kg/ha) | Preemergence herbicidal rating ZEAMX (ZEAMX (Corn, Field) [1]; rate 0.0313 kg/ha) | Preemergence herbicidal rating ZEAMX (ZEAMX (Corn, Field) [1]; rate 0.0625 kg/ha) | Preemergence herbicidal rating ZEAMX (ZEAMX (Corn, Field) [1]; rate 0.1250 kg/ha) | Preemergence herbicidal rating ZEAMX (ZEAMX (Corn, Field) [1]; rate 0.2500 kg/ha) | Preemergence herbicidal rating GALAP (GALAP (Galium); rate 0.0156 kg/ha) | Preemergence herbicidal rating GALAP (GALAP (Galium); rate 0.0313 kg/ha) | Preemergence herbicidal rating GALAP (GALAP (Galium); rate 0.0625 kg/ha) | Preemergence herbicidal rating GALAP (GALAP (Galium); rate 0.1250 kg/ha) | Preemergence herbicidal rating AMBEL (AMBEL (Ragweed, Common); rate 0.0156 kg/ha) | Preemergence herbicidal rating AMBEL (AMBEL (Ragweed, Common); rate 0.0313 kg/ha) | Preemergence herbicidal rating SETVI (SETVI (Foxtail, Green); rate 0.0156 kg/ha) | Preemergence herbicidal rating SETVI (SETVI (Foxtail, Green); rate 0.0313 kg/ha) | Preemergence herbicidal rating SETVI (SETVI (Foxtail, Green); rate 0.0625 kg/ha) | Preemergence herbicidal rating SETVI (SETVI (Foxtail, Green); rate 0.1250 kg/ha) | Preemergence herbicidal rating ECHCG (ECHCG (Barnyardgrass); rate 0.0156 kg/ha) | Preemergence herbicidal rating ECHCG (ECHCG (Barnyardgrass); rate 0.0313 kg/ha) | Preemergence herbicidal rating ECHCG (ECHCG (Barnyardgrass); rate 0.0625 kg/ha) | Preemergence herbicidal rating ECHCG (ECHCG (Barnyardgrass); rate 0.1250 kg/ha) | Preemergence herbicidal rating ECHCG (ECHCG (Barnyardgrass); rate 0.2500 kg/ha) | Preemergence herbicidal rating IPOHE ([5]; rate 0.0156 kg/ha) | Preemergence herbicidal rating IPOHE ([5]; rate 0.0313 kg/ha) | Preemergence herbicidal rating IPOHE ([5]; rate 0.0625 kg/ha) | herbicidal effect rating, ECHORC ([6]; 0.0313 kg/ha)
1.0: Preemergence herbicidal rating AMBEL (AMBEL (Ragweed, Common); rate 0.2500 kg/ha) | Preemergence herbicidal rating IPOHE ([5]; rate 0.1250 kg/ha) | Herbicidal rating CASOB (CASOB (Sicklepod); rate 0.0158 kg/ha) | Herbicidal rating CASOB (CASOB (Sicklepod); rate 0.0315 kg/ha) | Herbicidal rating CASOB (CASOB (Sicklepod); rate 0.0630 kg/ha)
6.0: herbicidal effect rating, CYPSE (CYPSE (Flatsedge); 0.0313 kg/ha) | herbicidal effect rating, CYPSE (CYPSE (Flatsedge); 0.0625 kg/ha) | ECHORC herbicidal effect rating ([6]; 0.1250 kg/ha)
3.0: Preemergence herbicidal rating SETVI (SETVI (Foxtail, Green); rate 0.2500 kg/ha) | Preemergence herbicidal rating IPOHE ([5]; rate 0.2500 kg/ha)
1.5: Herbicidal rating TRZAWR ([4]; rate 0.0158 kg/ha)
8.0: CYPSE herbicidal effect rating (CYPSE (Flatsedge); 0.2500 kg/ha)
7.0: Preemergence herbicidal rating GALAP (GALAP (Galium); rate 0.2500 kg/ha) | Preemergence herbicidal rating CHEAL ([3]; rate 0.1250 kg/ha) | CYPSE herbicidal effect rating (CYPSE (Flatsedge); 0.1250 kg/ha)
9.0: Preemergence herbicidal rating CHEAL ([3]; rate 0.0156 kg/ha) | Preemergence herbicidal rating CHEAL ([3]; rate 0.0313 kg/ha) | Preemergence herbicidal rating CHEAL ([3]; rate 0.2500 kg/ha)
4.5: Herbicidal rating ZEAMX (ZEAMX (Corn, Field) [2]; rate 0.0158 kg/ha) | Herbicidal rating ZEAMX (ZEAMX (Corn, Field) [2]; rate 0.0315 kg/ha) | Herbicidal rating ZEAMX (ZEAMX (Corn, Field) [2]; rate 0.0630 kg/ha)
5.0: herbicidal effect rating, ECHORC ([6]; 0.0625 kg/ha) | ECHORC herbicidal effect rating ([6]; 0.2500 kg/ha)
4.0: Preemergence herbicidal rating CHEAL ([3]; rate 0.0625 kg/ha) | ORYSAT herbicidal effect rating (rice tolerance) (ORYSAT (Rice, Tebonnet))
2.0: Preemergence herbicidal rating AMBEL (AMBEL (Ragweed, Common); rate 0.0625 kg/ha) | Preemergence herbicidal rating AMBEL (AMBEL (Ragweed, Common); rate 0.1250 kg/ha) | herbicidal effect rating, ORYSAT (rice tolerance) (ORYSAT (Rice, Tebonnet))
